Laboratory results: ChEMBL document CHEMBL1201862, “PubChem BioAssay data set” (2004)
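These data come from cells grown in 96-well plates and exposed to compound for 48 hours at five concentrations. GI50 is the concentration that inhibits growth by half.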 Calls of active or inactive are those of the source. Cut-off read from the data, not from the text of the source: active = GI50 up to about 1.1 µM and inactive = higher.

Key:
Assay in all cases: growth of human tumour cells (NCI), 48 h
[1] = tested on: SF-295
[2] = tested on: NCI-H23
[3] = tested on: K562
[4] = tested on: A498
[5] = tested on: UACC-257
[6] = tested on: MOLT-4
[7] = tested on: TK-10
[8] = tested on: NCI-H460
[9] = tested on: SN12C
[10] = tested on: NCI-H226
[11] = tested on: DLD-1
[12] = tested on: SNB-19
[13] = tested on: LOX IMVI
[14] = tested on: HCC 2998
[15] = tested on: Malme-3M
[16] = tested on: OVCAR-4
[17] = tested on: LXFL 529
[18] = tested on: DMS-114
[19] = tested on: RXF 393
[20] = tested on: SR
[21] = tested on: HCT-15
[22] = tested on: KM-20L2
[23] = tested on: M19-MEL
[24] = tested on: SW-620
[25] = tested on: OVCAR-3
[26] = tested on: DMS-273
[27] = tested on: SK-MEL-5
[28] = tested on: RPMI-8226
[29] = tested on: EKVX
[30] = tested on: XF498
[31] = tested on: UACC-62
[32] = tested on: SK-MEL-28
[33] = tested on: UO-31
[34] = tested on: A549
[35] = tested on: SK-MEL-2
[36] = tested on: HOP-18
[37] = tested on: ACHN
[38] = tested on: HT-29
[39] = tested on: OVCAR-8
[40] = tested on: HCT-116
[41] = tested on: SF-539
[42] = tested on: CAKI-1
[43] = tested on: KM12
[44] = tested on: HOP-92
[45] = tested on: CCRF-CEM
[46] = tested on: SNB-78
[47] = tested on: SNB-75
[48] = tested on: U-251
[49] = tested on: OVCAR-5
[50] = tested on: 786-0
[51] = tested on: M14
[52] = tested on: HL-60

CN(C)C=C1C(=O)N(C)C(=O)N(C)C1=O
GI50 [1]: > 100 µM (inactive)
GI50 [2]: > 100 µM (inactive)
GI50 [3]: > 100 µM (inactive)
GI50 [4]: > 100 µM (inactive)
GI50 [5]: > 100 µM (inactive)
GI50 [6]: > 100 µM (inactive)
GI50 [7]: > 100 µM (inactive)
GI50 [8]: > 100 µM (inactive)
GI50 [9]: > 100 µM (inactive)
GI50 [10]: > 100 µM (inactive)
GI50 [11]: > 100 µM (inactive)
GI50 [12]: > 100 µM (inactive)
GI50 [13]: > 100 µM (inactive)
GI50 [14]: > 100 µM (inactive)
GI50 [15]: > 100 µM (inactive)
GI50 [16]: > 100 µM (inactive)
GI50 [17]: > 100 µM (inactive)
GI50 [18]: > 100 µM (inactive)
GI50 [19]: > 100 µM (inactive)
GI50 [20]: > 100 µM (inactive)
GI50 [21]: > 100 µM
GI50 [22]: > 100 µM (inactive)
GI50 [23]: > 100 µM (inactive)
GI50 [24]: > 100 µM (inactive)
GI50 [25]: > 100 µM (inactive)
GI50 [26]: > 100 µM (inactive)
GI50 [27]: > 100 µM (inactive)
GI50 [28]: > 100 µM (inactive)
GI50 [29]: > 100 µM (inactive)
GI50 [30]: > 100 µM (inactive)
GI50 [31]: > 100 µM (inactive)
GI50 [32]: > 100 µM (inactive)
GI50 [33]: > 100 µM (inactive)
GI50 [34]: > 100 µM (inactive)
GI50 [35]: > 100 µM (inactive)
GI50 [36]: > 100 µM (inactive)
GI50 [37]: > 100 µM (inactive)
GI50 [38]: > 100 µM (inactive)
GI50 [39]: > 100 µM (inactive)
GI50 [40]: > 100 µM (inactive)
GI50 [41]: > 100 µM (inactive)
GI50 [42]: > 100 µM (inactive)
GI50 [43]: > 100 µM (inactive)
GI50 [44]: > 100 µM (inactive)
GI50 [45]: > 100 µM (inactive)
GI50 [46]: > 100 µM (inactive)
GI50 [47]: > 100 µM (inactive)
GI50 [48]: > 100 µM (inactive)
GI50 [49]: > 100 µM (inactive)
GI50 [50]: > 100 µM (inactive)
GI50 [51]: > 100 µM (inactive)
GI50 [52]: > 100 µM (inactive)
